In article PMC6332449, “Pharmacological Validation of N-Myristoyltransferase as a Drug Target in Leishmania donovani” (ACS Infectious Diseases, 2018):
Like-named read-outs stand apart in the source and are kept apart here.

Legend:
[1] = tested on: L. donovani axenic amastigotes; assay: L. donovani axenic amastigote compound sensitivity assay; assay type: cell-based, Leishmania donovani; conditions: read-out: axenic amastigote EC50
Description: (§1) The clonal L. donovani cell line LdBOB (derived from MHOM/SD/62/1S-CL2D) was used in our in vitro compound screening and mechanism of action studies. Promastigotes were grown at 26 °C in modified M199 media with axenic amastigotes grown at 37 °C, as previously described.[35] All animal studies were carried using L. donovani (LV9; WHO designation: MHOM/ET/67/HU3).
(§2) These assays were carried out as previously described.[25],[36],[37]

THP-1 = THP-1 host cell toxicity in the intramacrophage assay; assay type: cell-based
Description: as §2

[2] = tested on: L. donovani intracellular amastigotes; assay: L. donovani intramacrophage (intracellular amastigote) assay; assay type: cell-based, Leishmania donovani; conditions: read-out: intramacrophage EC50
Description: as §1, §2

L. major NMT (LmNMT) = biological target: T1, L. major NMT (LmNMT) (Leishmania major, UniProt Q4Q5S8); assay: LmNMT enzymatic assay (scintillation proximity, [3H]myristoyl-CoA, CAP5.5 peptide); assay type: biochemical
T1 construct: Recombinant LmNMT was expressed and purified as previously described; made in house

[3] = tested on: L. donovani promastigotes; assay: L. donovani promastigote compound sensitivity assay; assay type: cell-based, Leishmania donovani; conditions: read-out: promastigote EC50
Description: as §1, §2

human NMT (HsNMT) = biological target: T2, human NMT (HsNMT) (Homo sapiens, UniProt P30419); assay: counter-screen against human NMT; assay type: biochemical
T2 sequence (P30419 1-496): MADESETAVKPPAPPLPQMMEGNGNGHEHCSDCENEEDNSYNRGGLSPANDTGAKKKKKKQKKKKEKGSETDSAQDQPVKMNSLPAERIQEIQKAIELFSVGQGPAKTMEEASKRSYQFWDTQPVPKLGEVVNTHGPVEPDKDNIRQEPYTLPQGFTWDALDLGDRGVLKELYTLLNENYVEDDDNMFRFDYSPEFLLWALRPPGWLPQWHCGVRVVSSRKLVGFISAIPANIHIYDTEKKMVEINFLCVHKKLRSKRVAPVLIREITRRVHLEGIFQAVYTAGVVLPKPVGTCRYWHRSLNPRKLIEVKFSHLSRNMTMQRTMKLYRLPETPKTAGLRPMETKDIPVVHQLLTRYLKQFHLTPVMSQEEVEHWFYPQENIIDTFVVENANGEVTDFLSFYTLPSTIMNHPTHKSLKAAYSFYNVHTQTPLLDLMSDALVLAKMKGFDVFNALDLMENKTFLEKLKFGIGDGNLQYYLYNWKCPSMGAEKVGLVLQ

Trypanosoma brucei [4] = tested on: Trypanosoma brucei; set-up: method as in PMID 20360736; conditions: cited from earlier work
[5] = tested on: Trypanosoma brucei N-myristoyltransferase (TbNMT); conditions: cited from earlier work
Trypanosoma brucei [6] = conditions: cited from earlier work
[7] = tested on: L. donovani amastigotes (LV9); assay: mouse model of VL (BALB/c mice infected with L. donovani LV9)
[8] = tested on: intracellular amastigote form of T. cruzi; assay: T. cruzi intracellular amastigote assay; assay type: cell-based; conditions: Trypanosoma cruzi; read-out: EC50 against T. cruzi intracellular amastigotes
Vero cells = assay: host Vero cell toxicity; assay type: cell-based; conditions: Chlorocebus sabaeus, read-out: EC50 against host Vero cells
[9] = Leishmania donovani, L. donovani LdBOB
[10] = Homo sapiens, THP-1; read-out: THP-1 EC50
[11] = Leishmania donovani, L. donovani intracellular amastigotes
[12] = Homo sapiens, THP-1, read-out: THP-1 EC50

T1 sequence (Q4Q5S8 entry or part of it): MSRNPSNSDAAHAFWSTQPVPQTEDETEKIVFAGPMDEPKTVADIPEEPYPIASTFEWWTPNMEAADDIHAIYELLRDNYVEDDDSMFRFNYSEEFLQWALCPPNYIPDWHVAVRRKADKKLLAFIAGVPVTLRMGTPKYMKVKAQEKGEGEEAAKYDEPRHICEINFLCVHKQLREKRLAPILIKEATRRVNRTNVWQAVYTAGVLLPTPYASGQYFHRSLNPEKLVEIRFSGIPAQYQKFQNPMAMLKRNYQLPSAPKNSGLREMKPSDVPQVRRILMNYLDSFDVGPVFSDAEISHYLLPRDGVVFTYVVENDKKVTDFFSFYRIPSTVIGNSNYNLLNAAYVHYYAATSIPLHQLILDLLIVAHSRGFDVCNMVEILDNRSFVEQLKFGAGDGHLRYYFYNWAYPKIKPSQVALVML

EC50 [1, 9]	EC50 [2, 11]	IC50 (L. major NMT (LmNMT))	EC50 [3, 9]	IC50 (human NMT (HsNMT))	SMILES	EC50 (THP-1; [10])	other results
9.2 ± 0.4 µM	> 50 µM	0.08 µM	10 ± 0.4 µM	0.08 µM	Cc1nn(C)c(C)c1N(C)S(=O)(=O)c1c(Cl)cc(N2CCN(C(=O)c3cnn(C)c3)CC2)cc1Cl [compound 5, 2,6-Dichloro-N-methyl-4-(4-(1-methyl-1H-pyrazole-4-carbonyl)piperazin-1-yl)-N-(1,3,5-trimethyl-1H-pyrazol-4-yl)benzenesulfonamide]	> 50 µM	–
–	–	–	–	–	Cc1nn(C)c(C)c1NS(=O)(=O)c1c(Cl)cc(-c2ccnc(N3CCNCC3)c2)cc1Cl [DDD85646]	–	efficacy in mouse models of stage 1 HAT (in words) (Trypanosoma brucei [4]): curative; inhibition of TbNMT (in words) [5]: low nM inhibitor; activity in the stage 2 HAT mouse model (in words) (Trypanosoma brucei [6]): not active
–	–	–	–	–	CCCCCCCCCCCCCCCCOP(=O)([O-])OCC[N+](C)(C)C [miltefosine]	–	reduction in liver parasite burden (LDU) versus vehicle ([7]; 30 mg kg^-1 orally q.d. for 5 days): 88%
2.7 ± 0.08 µM	> 50 µM	0.03 µM	18.3 ± 0.1 µM	0.02 µM	Cc1nn(C)c(C)c1N(C)S(=O)(=O)c1c(Cl)cc(N2CCN(C(=O)c3ccn[nH]3)CC2)cc1Cl [compound 4, 4-(4-(1H-Pyrazole-5-carbonyl)piperazin-1-yl)-2,6-dichloro-N-methyl-N-(1,3,5-trimethyl-1H-pyrazol-4-yl)benzenesulfonamide]	> 50 µM	–
> 50 µM	> 50 µM	0.06 µM	> 50 µM	0.1 µM	Cc1nn(C)c(C)c1N(C)S(=O)(=O)c1c(Cl)cc(N2CCN(C(=O)c3cn[nH]c3)CC2)cc1Cl [compound 6, 4-(4-(1H-Pyrazole-4-carbonyl)piperazin-1-yl)-2,6-dichloro-N-methyl-N-(1,3,5-trimethyl-1H-pyrazol-4-yl)benzenesulfonamide]	> 50 µM	–
–	–	–	–	–	O.O.O.O.O.O.O.O.O.O=C([O-])[C@@H]1[O][Sb](=[O])([O][Sb]2(=[O])[O][C@H]([C@H](O)CO)[C@H](O)[C@H](C(=O)[O-])[O]2)[O][C@H]([C@H](O)CO)[C@@H]1O.[Na+].[Na+].[Na+] (some centres unmarked) [sodium stibogluconate]	–	reduction in liver parasite burden (LDU) versus vehicle ([7]; 15 mg kg^-1 subcutaneous q.d. for 5 days): 52%
5.1 ± 0.2 µM	> 50 µM	0.03 µM	8.2 ± 0.5 µM	0.008 µM	Cc1nn(C)c(C)c1N(C)S(=O)(=O)c1c(Cl)cc(N2CCN(C(=O)c3ccc(N)cc3)CC2)cc1Cl [compound 8, 4-(4-(4-Aminobenzoyl)piperazin-1-yl)-2,6-dichloro-N-methyl-N-(1,3,5-trimethyl-1H-pyrazol-4-yl)benzenesulfonamide]	> 50 µM	–
0.3 ± 0.01 µM	> 50 µM	0.1 µM	5.8 ± 0.4 µM	0.5 µM	Cc1nn(C)c(C)c1N(C)S(=O)(=O)c1c(Cl)cc(N2CCN(C(=O)c3cccnc3)CC2)cc1Cl [compound 7, 2,6-Dichloro-N-methyl-4-(4-nicotinoylpiperazin-1-yl)-N-(1,3,5-trimethyl-1H-pyrazol-4-yl)benzenesulfonamide]	> 50 µM	–
–	–	–	–	–	Cc1nn(C)c(C)c1N(C(F)F)S(=O)(=O)c1c(Cl)cc(CCCC2CCN(C)CC2)cc1Cl [compound 2]	–	reduction in liver parasite burden (LDU) versus vehicle ([7]; 50 mg kg^-1 orally b.i.d. for 5 days): 52%; EC50 ([1]; Leishmania donovani): 0.2 ± 0.006 µM; EC50 (THP-1; [12]): 15.8 µM; EC50 ([2]; Leishmania donovani): 2.4 ± 0.8 µM; EC50 [8]: 0.47 µM; EC50 (Vero cells): 5.1 µM; efficacy in the stage 2 mouse model (in words) (Trypanosoma brucei [6]): moderate efficacy; EC50 ([3]; Leishmania donovani): 0.04 ± 0.001 µM
–	–	–	–	–	Cc1nn(C)c(C)c1N(C)S(=O)(=O)c1c(Cl)cc(CCCC2CCN(C)CC2)cc1Cl [compound 3]	–	EC50 ([1]; Leishmania donovani): 8.2 ± 0.6 µM; EC50 (THP-1; [12]): > 50 µM; EC50 ([2]; Leishmania donovani): 7.1 ± 1.1 µM; EC50 ([3]; Leishmania donovani): 0.07 ± 0.004 µM
–	–	–	–	–	Cc1nn(C)c(C)c1N[S+](=O)([O-])c1ccc(CCCC2CCNCC2)cc1 [compound 1]	–	EC50 ([1]; L. donovani LdBOB): > 50 µM; EC50 (THP-1; read-out: THP-1 EC50): > 50 µM; EC50 ([2]; L. donovani intracellular amastigotes): > 50 µM; IC50 (L. major NMT (LmNMT); 5 nM LmNMT, 0.5 μM CAP5.5, 0.125 μM myristoyl-CoA, read-out: LmNMT IC50): 0.4 µM; EC50 ([3]; L. donovani LdBOB): > 50 µM

SMILES	EC50 [1, 9]	EC50 [2, 11]	IC50 (L. major NMT (LmNMT))	EC50 [3, 9]	IC50 (human NMT (HsNMT))	EC50 (THP-1; [10])	other results
Cc1nn(C)c(C)c1N(C)S(=O)(=O)c1c(Cl)cc(N2CCN(C(=O)Cc3ccccc3)CC2)cc1Cl [compound 9, 2,6-Dichloro-N-methyl-4-(4-(2-phenylacetyl)piperazin-1-yl)-N-(1,3,5-trimethyl-1H-pyrazol-4-yl)benzenesulfonamide]	2.2 ± 0.03 µM	40.5 ± 13.4 µM	10 µM	6.3 ± 0.3 µM	6.3 µM	> 50 µM	potency against LmNMT (in words) (L. major NMT (LmNMT)): poor activity
